Series [1] is described as follows: Sublimation of additive from PMMA film on hotplate heating (absorption spectra). The format is physicochemical. How it is done:
The same procedure was repeated for heating at 110° C., 130° C. and 160° C. The spectra taken each time were compared and the possible sublimation of the additive after the different thermal treatment procedures was calculated.
The following explanations apply to all tables. […] SUBL=temperature of sublimation.

Series [2] is described as follows: UV absorbance of PMMA films loaded with additive. The format is physicochemical. To be noted: additive 5% w/w of PMMA; value includes PMMA absorbance (higher by 0.07).
Series [3] in a line: UV absorbance of PMMA films loaded with additive. The format is physicochemical. To be noted: additive 7.5% w/w of PMMA. How it is done: A quantity of a polyaromatic compound (i.e.compound (XI), Table 9), was added in part of this solution at a 7.5% w/w of the polymer concentration.
The solution was stirred at room temperature for a few hours and the polyaromatic compound was dissolved. Then, a small amount of the solution was used to spin coat a film on quartz substrate at 4000 rpm for 30 sec. The thickness of this film was measured by a profilometer and found 12250 Å. The absorption spectrum of the film was taken at vertical incidence.
The same procedure was repeated, using the initial PMMA solution this time. A new film was spun and its thickness was found 13000 Å. […]

A short description of series [4]: Solubility of additive in the solvents used (PGMEA, MIBK).
Method: It is important that the selected additive is soluble in the solvents commonly used in the microlithography process. […] After film formation the amount of the additive sublimed during the baking cycles was tested. Evaluation of spectroscopic and etch resistance enhancement followed.
SOL=solubility at the solvents used (##=very bad, #=bad, *=good, **=very good). SUBL=temperature of sublimation.

SMILES strings stand for the structures.

`Nc1ccc2cc3ccccc3cc2c1` [2-aminoanthracene]: the “SUBL (temperature of sublimation)” value in series [1] (additive 5% w/w in PMMA film) is 110 °C. Besides, in series [2], the “UV 193 nm (absorbance)” value is 0.51 /0.5 μm.
For `O=C(O)c1c2ccccc2cc2ccccc12` [9-anthracene carboxylic acid], in that order: 110 °C and 0.46 /0.5 μm.
For the molecule `OCc1c2ccccc2cc2ccccc12` [9-anthracene methanol], in series [1] (additive 5% w/w in PMMA film), the “SUBL (temperature of sublimation)” value is 110 °C. In addition, the “UV 193 nm (absorbance)” value in series [2] is recorded as 0.43 /0.5 μm.
As for `O=C(OCC(COC(=O)C12CC3CC(CC(C3)C1)C2)Cc1c2ccccc2cc2ccccc12)C12CC3CC(CC(C3)C1)C2` (stereo not drawn) [Compound XIII, Mixed anthryl ester], the “SUBL (temperature of sublimation)” value in series [1] (additive 7.5% w/w in PMMA film) was 160 °C. Besides, in series [3], the “UV 193 nm (absorbance)” value was 0.17 /0.5 μm and the “UV 248 nm (absorbance)” value is reported as 0.45 /0.5 μm.
On the same counts, the results for `CC(=O)C1CCC2C3CC=C4CC(OC(=O)c5c6ccccc6cc6ccccc56)CCC4(C)C3CCC12C` (stereo not drawn) [Compound XIV, 5-pregnen-3β-yl-(9-anthryl-methylate)-20-one] are 160 °C, 0.20 /0.5 μm and 0.52 /0.5 μm.
Consider `O=C(O)CCC(=O)OC(Cc1c2ccccc2cc2ccccc12)Cc1c2ccccc2cc2ccccc12` [II, 1,3-di-(9-anthryl2-propyl hydrogen succinate], for which, in series [1] (additive 7.5% w/w in PMMA film), the “SUBL (temperature of sublimation)” value is 160 °C. In series [3], the “UV 193 nm (absorbance)” value was 0.33 /0.5 μm and the “UV 248 nm (absorbance)” value is 1.25 /0.5 μm. Besides, in series [4], the “solubility (in words)” value was “improved solubility”.
In the case of `c1ccc2c(CNCc3c4ccccc4cc4ccccc34)c3ccccc3cc2c1` [IV, N,N-Di-(9-anthrylmethyl)-amine], the “SUBL (temperature of sublimation)” value in series [1] (additive 7.5% w/w in PMMA film) was 160 °C. Further, in series [3], the “UV 193 nm (absorbance)” value is recorded as 0.22 /0.5 μm and the “UV 248 nm (absorbance)” value was 0.31 /0.5 μm.
`O=C(CCC(=O)OC(Cc1c2ccccc2cc2ccccc12)Cc1c2ccccc2cc2ccccc12)OCc1c2ccccc2cc2ccccc12` [IX, 1,3-Di-(9-anthryl)-2-propyl 9-anthrylmethyl Succinate]: the “SUBL (temperature of sublimation)” value in series [1] (additive 7.5% w/w in PMMA film) is 160 °C. For the same molecule, in series [3], the “UV 193 nm (absorbance)” value is recorded as 1.41 /0.5 μm and the “UV 248 nm (absorbance)” value is 1.74 /0.5 μm. Further, the “solubility (in words)” value in series [4] is “decreased solubility”.
For `OC(Cc1c2ccccc2cc2ccccc12)Cc1c2ccccc2cc2ccccc12` [I], in that order: 160 °C, 0.16 /0.5 μm, 0.48 /0.5 μm and “improved solubility”.
Turning to `O=C(OCCOc1c2ccccc2cc2ccccc12)OCCOc1c2ccccc2cc2ccccc12` [VI, Di-2-(9-anthryloxy)-ethyl carbonate], the “SUBL (temperature of sublimation)” value in series [1] (additive 7.5% w/w in PMMA film) worked out at 130 °C. Further, in series [3], the “UV 193 nm (absorbance)” value is listed as 0.24 /0.5 μm and the “UV 248 nm (absorbance)” value is 1.04 /0.5 μm.
Take `c1ccc2c(CNC3CCCCC3NCc3c4ccccc4cc4ccccc34)c3ccccc3cc2c1` (stereo not drawn) [VIII, trans-1,2-Di-(9-aminomethyl-anthryl)-cyclohexane]: the “solubility (in words)” value in series [4] is “improved solubility”.
With `O=C(OCc1c2ccccc2cc2ccccc12)c1c2ccccc2cc2ccccc12` [VII], the “SUBL (temperature of sublimation)” value in series [1] (additive 7.5% w/w in PMMA film) was 160 °C. Also, in series [3], the “UV 193 nm (absorbance)” value is recorded as 0.35 /0.5 μm and the “UV 248 nm (absorbance)” value is reported as 1.16 /0.5 μm. Further, the “solubility (in words)” value in series [4] is recorded as “not satisfactory”.
On the same counts, the results for `O=C(CCC(=O)OC(Cc1c2ccccc2cc2ccccc12)Cc1c2ccccc2cc2ccccc12)OCC(COC(=O)CCC(=O)OC(Cc1c2ccccc2cc2ccccc12)Cc1c2ccccc2cc2ccccc12)Cc1c2ccccc2cc2ccccc12` [X, Penta-anthryl ester] are 160 °C, 0.33 /0.5 μm, 0.75 /0.5 μm and “decreased solubility”.
On the same counts, the results for `O=C(OCc1c2ccccc2cc2ccccc12)C12CC3CC(CC(C3)C1)C2` [XI, 1-adamantyl 9-anthrylmethylate] are 160 °C, 0.05 /0.5 μm, 0.36 /0.5 μm and “very good solubility”.
For the molecule `c1ccc2cc3ccccc3cc2c1` [anthracene], the “SUBL (temperature of sublimation)” value in series [1] (additive 5% w/w in PMMA film) was 110 °C. In addition, in series [2], the “UV 193 nm (absorbance)” value was 0.38 /0.5 μm.

For the origin of these results see patent US20050026068A1, “Polycarbocyclic derivatives for modification of resist, optical and etch resistance properties” (priority 2001, published 2005).
